Experimental data reported in publication PMC9639481, “Discovery of dual tubulin-NEDDylation inhibitors with antiproliferative activity” (Journal of Enzyme Inhibition and Medicinal Chemistry, 2022).

Tests used:
tubulin [1] = test system: T1, tubulin; assay: in vitro tubulin polymerisation assay; supported by immunofluorescence of microtubules in HepG2 cells; format: biochemical
T1 construct: with alpha/beta-tubulin heterodimer

tubulin [2] = test system: T1, tubulin; assay: in vitro tubulin polymerisation assay; format: biochemical

Row | Structure (SMILES) | IC50 (tubulin [1]) [µM] | IC50 (tubulin [2]) [µM]
1 | COc1ccc(CN(C(=O)CSC(=S)N2CCCCC2)c2cc(OC)c(OC)c(OC)c2)cc1 [C11, 2-((4-Methoxybenzyl)(3,4,5-trimethoxyphenyl)amino)-2-oxoethylpiperidine-1-carbodithioate] | 2.4 | –
2 | COc1ccc(CN(C(=O)CSC(=S)N2CC(C)CC(C)C2)c2cc(OC)c(OC)c(OC)c2)cc1 (centres unmarked) [C14, 2-((4-Methoxybenzyl)(3,4,5-trimethoxyphenyl)amino)-2-oxoethyl-3,5-dimethylpiperidine-1-carbodithioate] | – | > 4
